Read-outs that look alike come from different tables or passages of the source.
Assays:
AChE = details: cited from earlier work
BACE1 [1] = details: cited from earlier work
BuChE = details: cited from earlier work
BACE1 [2] = molecular target: T1, BACE1 (Homo sapiens, UniProt P56817); test: In vitro β-secretase (BACE1) activity assay kit (fluorescence); assay type: biochemical, equine
T1 construct: purchased Sigma-Aldrich CS0010

[3] = molecular target: T2, AChE from Electrophorus electricus (electric eel) (Electrophorus electricus, UniProt O42275); test: biochemical; details: mean ± SD of three independent experiments
T2 construct: purchased Sigma-Aldrich C3389
T2 sequence (O42275 24-633): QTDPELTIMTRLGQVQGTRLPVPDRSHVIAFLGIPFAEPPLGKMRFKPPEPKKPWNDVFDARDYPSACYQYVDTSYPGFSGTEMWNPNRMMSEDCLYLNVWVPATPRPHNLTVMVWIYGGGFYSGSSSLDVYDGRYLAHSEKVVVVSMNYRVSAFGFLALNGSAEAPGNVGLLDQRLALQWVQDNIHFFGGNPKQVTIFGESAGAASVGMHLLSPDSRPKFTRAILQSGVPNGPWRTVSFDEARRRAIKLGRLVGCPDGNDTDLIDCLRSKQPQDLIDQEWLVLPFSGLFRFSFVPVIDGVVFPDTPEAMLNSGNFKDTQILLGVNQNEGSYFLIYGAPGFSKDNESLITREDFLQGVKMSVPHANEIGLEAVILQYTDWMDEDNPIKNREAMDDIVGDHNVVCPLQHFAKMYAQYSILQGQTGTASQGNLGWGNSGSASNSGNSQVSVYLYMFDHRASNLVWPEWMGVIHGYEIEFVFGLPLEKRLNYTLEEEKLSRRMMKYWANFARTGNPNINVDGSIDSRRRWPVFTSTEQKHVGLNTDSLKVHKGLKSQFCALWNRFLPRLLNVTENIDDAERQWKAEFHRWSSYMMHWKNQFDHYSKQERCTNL

human AChE = details: cited from earlier work
BACE-1 = details: cited from earlier work
hBuChE = molecular target: hBuChE; design: method as in PMID 23041347; details: cited from earlier work

T1 sequence (P56817 46-457 limits assumed): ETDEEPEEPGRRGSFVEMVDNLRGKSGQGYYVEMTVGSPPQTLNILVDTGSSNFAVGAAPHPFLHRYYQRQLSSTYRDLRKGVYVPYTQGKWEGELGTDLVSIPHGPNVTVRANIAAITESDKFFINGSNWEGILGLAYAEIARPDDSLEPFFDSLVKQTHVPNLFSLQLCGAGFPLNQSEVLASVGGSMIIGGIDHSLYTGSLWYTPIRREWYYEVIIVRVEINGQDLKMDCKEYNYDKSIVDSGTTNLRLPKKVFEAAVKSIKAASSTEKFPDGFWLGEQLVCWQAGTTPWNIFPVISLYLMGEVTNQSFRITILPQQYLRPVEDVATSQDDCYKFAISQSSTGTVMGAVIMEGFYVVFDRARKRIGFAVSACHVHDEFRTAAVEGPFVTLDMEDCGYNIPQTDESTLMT

Row | SMILES | IC50 (BACE1 [2]) [µM] | IC50 [3] [µM] | other results
1 | CN(C)CCOc1ccc(NC(=O)c2ccccn2)cc1 [Compound V] | – | – | IC50 (AChE; read-out: AChE inhibitory activity IC50): 2.49 ± 0.19 µM
2 | C[C@@H](NC(=O)c1cccc(C(=O)N[C@@H](c2ccccc2)[C@H](O)CNCCC2CCN(Cc3ccccc3)CC2)c1)c1ccccc1 [Derivative VII] | – | – | IC50 (BACE1 [1]): 0.57 µM; IC50 (AChE; read-out: AChE IC50): 1.83 µM
3 | CCN(CC)Cc1ccccc1CNC(=O)c1cccc(CC(=O)c2ccc(F)cc2)c1 [III] | – | – | IC50 (BuChE; read-out: BChE IC50): 8e-05 µM
4 | CCN(CC)Cc1ccccc1CNC(=O)c1cc(C)cc(CC(=O)c2ccc(F)cc2)c1 [IV] | – | – | IC50 (BuChE; read-out: BChE IC50): 3.9e-05 µM
5 | COc1cc(C(=O)Nc2cccc(NC(=O)c3cc(OC)c(OC)c(OC)c3)c2)cc(OC)c1OC [JW1, N,N′-(1,3-phenylene)bis(3,4,5-trimethoxybenzamide)] | 54.4 ± 1.3 | 0.77 ± 0.018 | –
6 | COc1cc(OC)cc(C(=O)Nc2cccc(NC(=O)c3cc(OC)cc(OC)c3)c2)c1 [JW2, N,N′-(1,3-phenylene)bis(3,5-dimethoxybenzamide)] | 74 ± 1.61 | 2.57 ± 0.063 | –
7 | COc1ccc(C(=O)Nc2cccc(NC(=O)c3ccc(OC)c(OC)c3)c2)cc1OC [JW3, N,N′-(1,3-phenylene)bis(3,4-dimethoxybenzamide)] | 40.2 ± 8.12 | 0.41 ± 0.028 | –
8 | COc1cccc(C(=O)Nc2cccc(NC(=O)c3cccc(OC)c3)c2)c1 [JW4, N,N′-(1,3-phenylene)bis(3-methoxybenzamide)] | 81.4 ± 4.11 | 1.2 ± 0.013 | –
9 | COc1cc(C(=O)Nc2ccc(NC(=O)c3cc(OC)c(OC)c(OC)c3)cc2)cc(OC)c1OC [JW5, N,N′-(1,4-phenylene)bis(3,4,5-trimethoxybenzamide)] | 9.29 ± 3.02 | 0.068 ± 0.058 | –
10 | COc1cc(OC)cc(C(=O)Nc2ccc(NC(=O)c3cc(OC)cc(OC)c3)cc2)c1 [JW6, N,N′-(1,4-phenylene)bis(3,5-dimethoxybenzamide)] | 16.7 ± 0.25 | 0.19 ± 0.033 | –
11 | COc1ccc(C(=O)Nc2ccc(NC(=O)c3ccc(OC)c(OC)c3)cc2)cc1OC [JW7, N,N′-(1,4-phenylene)bis(3,4-dimethoxybenzamide)] | 12.8 ± 0.23 | 0.07 ± 0.003 | –
12 | COc1cccc(C(=O)Nc2ccc(NC(=O)c3cccc(OC)c3)cc2)c1 [JW8, N,N′-(1,4-phenylene)bis(3-methoxybenzamide)] | 9.01 ± 0.28 | 0.056 ± 0.043 | –
13 | COc1cc(C(=O)Nc2cccc([N+](=O)[O-])c2)cc(OC)c1OC [MB1, 3,4,5-trimethoxy-N-(3-nitrophenyl)benzamide] | 40.5 ± 2.2 | 0.67 ± 0.008 | –
14 | COc1cc(NC(=O)c2cc(OC)c(OC)c(OC)c2)cc(OC)c1OC [MB3, 3,4,5-trimethoxy-N-(3,4,5-trimethoxyphenyl)benzamide] | 20.2 ± 5.13 | 0.11 ± 0.078 | –
15 | COc1cc(CNC(=O)c2cc(OC)c(OC)c(OC)c2)cc(OC)c1OC [MB4, 3,4,5-trimethoxy-N-(3,4,5-trimethoxybenzyl)benzamide] | 87.7 ± 6.22 | 1.17 ± 0.015 | –
16 | O=C(NCCCCCCCCCCNc1c2c(nc3ccccc13)CCCC2)c1cc(=O)c2cc(O)ccc2o1 [Molecule VIII] | – | – | IC50 (human AChE; human AChE, read-out: IC50 for AChE): 0.008 µM; IC50 (BACE-1; read-out: IC50 for BACE-1): 2.8 µM
17 | OC(CNCc1cccc(COc2ccccc2)c1)Cn1cc(Br)c2cc(Br)ccc21 (centres unmarked) [compound IX] | – | – | IC50 (BACE1 [1]; read-out: BACE-1 IC50): 2.5 µM; IC50 (AChE; read-out: AChE IC50): 9.1 µM
18 | COc1ccc(C(=O)N(Cc2ccc(Cl)cc2)c2cccc(Br)c2)cc1OC [compound I] | – | – | IC50 (AChE; read-out: AChE IC50): 1.57 µM; IC50 (BuChE; read-out: BuChE IC50): 2.85 µM
19 | O=C(NCc1cc(Cl)cc(Cl)c1)c1cc(Br)ccc1O [compound VI] | – | – | IC50 (AChE; read-out: inhibitory potency of AChE activity): 33.1 ± 0.47 µM
20 | CC(=O)c1ccccc1NC(=O)c1ccc(OCCCCC[n+]2ccccc2)cc1 [compound XI] | – | – | Ki (human AChE; read-out: hAChE Ki): 0.081 µM; IC50 (BACE1 [1]): 0.31 µM; Ki (hBuChE): 0.093 µM
21 | COc1ccc(CNC(=O)C2CCN(C(=O)c3ccccc3)CC2)cc1OC [compound X] | – | – | IC50 (human AChE; in humans, read-out: AChE IC50): 0.00411 µM; IC50 (BACE-1; in humans, read-out: BACE-1 IC50): 0.0183 µM
22 | COc1ccc(C(=O)Nc2nc(CN(C)Cc3ccccc3)cs2)cc1 [substance II] | – | – | IC50 (AChE; read-out: AChE IC50): 1.47 µM; IC50 (BuChE; read-out: BuChE IC50): 11.4 µM

— publication PMC10573752, “New Benzamides as Multi-Targeted Compounds: A Study on Synthesis, AChE and BACE1 Inhibitory Activity and Molecular Docking” (International Journal of Molecular Sciences, 2023)
